Results from patent US20110190365A1, “Insecticidal 4-phenyl-1H-pyrazoles” (Bayer Crop Science AG, priority 2008, published 2011).

Assay: log P by HPLC on a reversed-phase column (C18), EEC Directive 79/831 Annex V.A8
Assay type: physicochemical
Details: HCOOH
Procedure: The stated log P values were determined in accordance with EEC Directive 79/831 Annex V.A8 by HPLC (High Performance Liquid Chromatography) using a reversed-phase column (C18).

Row | Structure (SMILES) | log P (HCOOH)
1 | Cc1cc(-n2nc(C(F)(F)Oc3ccc(Cl)c(Cl)c3)c(-c3cc(Cl)cc(C(F)(F)F)c3)c2N)ccc1C(=O)NCC(F)(F)C(F)F [I-A-Q2-300] | I-A-Q2-300: log P (HCOOH): 5.40
2 | Cc1cc(-n2nc(C)c(-c3ccc(Cl)cc3)c2N)ccc1C(=O)NCC(F)(F)C(F)F [I-A-Q2-325] | I-A-Q2-325: log P (HCOOH): 2.85
3 | CC(NC(=O)c1ccc(-n2nc(C(F)(F)F)c(-c3cccc(Cl)c3)c2N)cc1)c1ccccn1 (centres unmarked) [I-A-Q2-087] | I-A-Q2-087: log P (HCOOH): 2.80
4 | Nc1c(-c2cc(Cl)cc(Cl)c2)c(C(F)(F)F)nn1-c1ccc(C(=O)NCc2ccccn2)c(C(F)(F)F)c1 [I-A-Q2-386] | I-A-Q2-386: log P (HCOOH): 3.77
5 | Nc1c(-c2cc(Cl)cc(Cl)c2)c(C(F)(F)F)nn1-c1ccc(C(=O)NCC(F)(F)C(F)F)c(C(F)(F)F)c1 [I-A-Q2-385] | I-A-Q2-385: log P (HCOOH): 4.60
6 | Cc1cc(-n2nc(C(F)(F)F)c(-c3cc(Cl)cc(Cl)c3)c2[S+](C)[O-])ccc1C(=O)NCc1ccccn1 (centres unmarked) [I-A-Q2-063, 4-[4-(3,5-Dichlorophenyl)-5-methanesulphinyl-3-trifluoromethylpyrazol-1-yl]-2-methyl-N-pyridin-2-ylmethylbenzamide] | I-A-Q2-063: log P (HCOOH): 3.11
7 | Nc1c(-c2ccc(Br)cc2)c(C(F)(F)F)nn1-c1ccc(C(=O)NCC(F)(F)F)cc1 [I-A-Q2-189] | I-A-Q2-189: log P (HCOOH): 3.53
8 | Nc1c(-c2ccc(Cl)cc2)c(C(F)(F)F)nn1-c1ccc(C(=O)NCC(F)F)cc1 [I-A-Q2-164] | I-A-Q2-164: log P (HCOOH): 3.27
9 | Cc1cc(-n2nc(C(F)(F)F)c(-c3cc(Cl)cc(Cl)c3)c2N)ccc1C(=O)NCc1cn(C)cn1 [I-A-Q2-058] | I-A-Q2-058: log P (HCOOH): 1.94
10 | CCOC(=O)c1ccc(-n2nc(C(F)(F)F)c(I)c2N)cc1 [XI-A-044] | XI-A-044: log P (HCOOH): 3.66
11 | Cc1cc(-n2nc(C(F)(F)F)c(-c3cc(Cl)cc(Cl)c3)c2N)ccc1C(=O)NC(C)c1ccc(Cl)nc1 (centres unmarked) [I-A-Q2-248] | I-A-Q2-248: log P (HCOOH): 4.34
12 | Cc1cc(-n2nc(C(F)(F)Oc3ccc(Cl)cc3)c(-c3cc(Cl)cc(C(F)(F)F)c3)c2N)ccc1C(=O)NCC(F)(F)C(F)F [I-A-Q2-294] | I-A-Q2-294: log P (HCOOH): 4.95
13 | COC(=O)c1ccc(-n2nc(C(F)(F)F)c(I)c2N)cc1C [XI-A-083] | XI-A-083: log P (HCOOH): 3.48
14 | Cc1cc(-n2nc(C)c(-c3c(Cl)cccc3Cl)c2N)ccc1C(=O)NCC(F)(F)C(F)F [I-A-Q2-336] | I-A-Q2-336: log P (HCOOH): 2.76
15 | Cc1cc(-n2nc(C(F)(F)F)c(-c3cc(Cl)cc(Cl)c3)c2N)ccc1C(=O)N(C)C(C)c1ccccn1 (centres unmarked) [I-A-Q2-210] | I-A-Q2-210: log P (HCOOH): 4.28
16 | Nc1c(-c2cccc(F)c2)c(C(F)(F)F)nn1-c1ccc(C(=O)NCC(F)(F)F)cc1 [I-A-Q2-183] | I-A-Q2-183: log P (HCOOH): 3.11
17 | CC(NC(=O)c1ccc(-n2nc(C(F)(F)F)c(-c3cc(F)cc(Cl)c3)c2N)cc1)C(F)(F)F (centres unmarked) [I-A-Q2-084] | I-A-Q2-084: log P (HCOOH): 3.89
18 | COc1ccnc(CNC(=O)c2ccc(-n3nc(C(F)(F)F)c(-c4cc(Cl)cc(Cl)c4)c3N)cc2C)c1 [I-A-Q2-052] | I-A-Q2-052: log P (HCOOH): 2.34
19 | Cc1cc(-n2nc(C(F)(F)F)c(-c3cc(Cl)cc(Cl)c3)c2N)ccc1C(=O)NC1CCCC1 [I-A-Q2-223] | I-A-Q2-223: log P (HCOOH): 4.45
20 | Nc1c(-c2cc(Cl)cc(Cl)c2)c(C(F)(F)F)nn1-c1ccc(C(=O)NCc2ncccn2)cc1 [I-A-Q2-137] | I-A-Q2-137: log P (HCOOH): 3.40
21 | Nc1c(-c2ccc(Cl)c(F)c2)c(C(F)(F)F)nn1-c1ccc(C(=O)NC2CC2)cc1 [I-A-Q2-167] | I-A-Q2-167: log P (HCOOH): 3.19
22 | CC(NC(=O)c1ccc(-n2nc(C(F)(F)F)c(-c3cc(Cl)cc(Cl)c3)c2N)nc1)c1ccccn1 (centres unmarked) [I-A-Q2-102] | I-A-Q2-102: log P (HCOOH): 4.06

Row | Structure (SMILES) | log P (HCOOH)
23 | Nc1c(-c2ccc(Cl)cc2)c(-c2ccccc2)nn1-c1ccc(C(=O)NCc2ncccn2)cc1 [I-A-Q2-076] | I-A-Q2-076: log P (HCOOH): 2.89
24 | Cc1cc(-n2nc(C(F)(F)F)c(-c3cc(Cl)cc(Cl)c3)c2N)ccc1C(=O)NCCNC(=O)c1ccccn1 [I-A-Q2-036] | I-A-Q2-036: log P (HCOOH): 3.68
25 | Cc1cc(-n2nc(-c3ccccc3)c(-c3ccc(Cl)cc3)c2N)ccc1C(=O)NCc1ccccn1 [I-A-Q2-377] | I-A-Q2-377: log P (HCOOH): 2.80
26 | Cc1cc(-n2nc(C(F)(F)F)c(-c3cc(F)cc(Cl)c3)c2N)ccc1C(=O)NCc1ccccn1 [I-A-Q2-344] | I-A-Q2-344: log P (HCOOH): 2.84
27 | CC(NC(=O)c1ccc(-n2nc(C(F)(F)F)c(-c3cc(F)cc(Cl)c3)c2N)cc1)c1ccccc1 (centres unmarked) [I-A-Q2-090] | I-A-Q2-090: log P (HCOOH): 4.11
28 | Nc1c(-c2ccc(Cl)c(Cl)c2)c(C(F)(F)F)nn1-c1ccc(C(=O)NC2CC2)cc1 [I-A-Q2-157] | I-A-Q2-157: log P (HCOOH): 3.51
29 | Cc1cc(-n2nc(C)c(-c3cc(Cl)ccc3Cl)c2N)ccc1C(=O)NCC(F)(F)C(F)F [I-A-Q2-335] | I-A-Q2-335: log P (HCOOH): 3.04
30 | CNC(=O)c1ccc(-n2nc(C(F)(F)F)c(-c3cc(Cl)cc(Cl)c3)c2Br)nc1 [I-A-Q2-109] | I-A-Q2-109: log P (HCOOH): 4.35
31 | Cc1cc(-n2nc(C)c(-c3ccc(F)cc3F)c2N)ccc1C(=O)NCC(F)(F)C(F)F [I-A-Q2-329] | I-A-Q2-329: log P (HCOOH): 2.59
32 | Cc1cc(-n2nc(C(F)(F)Oc3ccc(Cl)cc3Cl)c(-c3cc(Cl)cc(C(F)(F)F)c3)c2N)ccc1C(=O)NCC(F)(F)C(F)F [I-A-Q2-295] | I-A-Q2-295: log P (HCOOH): 5.27
33 | Cc1cc(-n2nc(C(F)(F)F)c(-c3cc(Cl)cc(Cl)c3)c2N)ccc1C(=O)NC(c1ccccn1)C(F)(F)F (centres unmarked) [I-A-Q2-054] | I-A-Q2-054: log P (HCOOH): 2.31
34 | Cc1cc(-n2nc(C(F)(F)F)c(-c3cc(Cl)cc(Cl)c3)c2N)ccc1C(=O)N(C)Cc1ccccn1 [I-A-Q2-110] | I-A-Q2-110: log P (HCOOH): 2.69
35 | Cc1cc(-n2nc(-c3ccccc3)c(-c3ccc(Cl)cc3)c2N)ccc1C(=O)NCC(F)(F)C(F)F [I-A-Q2-337] | I-A-Q2-337: log P (HCOOH): 3.80
36 | Cc1cc(-n2nc(C(F)(F)F)c(-c3cc(Cl)c4c(c3)OCO4)c2N)ccc1C(=O)NCC(F)(F)C(F)F [I-A-Q2-293] | I-A-Q2-293: log P (HCOOH): 3.11
37 | Cc1cc(-n2nc(C(F)(F)F)c(-c3cc(Cl)cc(Cl)c3)c2N)ccc1C(=O)NC(c1cccc(C(F)(F)F)c1)C(F)(F)F (centres unmarked) [I-A-Q2-257] | I-A-Q2-257: log P (HCOOH): 5.22
38 | CCCc1nn(-c2ccc(C(=O)NCC(F)(F)C(F)F)c(C)c2)c(N)c1-c1ccc(Cl)cc1 [I-A-Q2-340] | I-A-Q2-340: log P (HCOOH): 3.56
39 | Cc1cc(-n2nc(C)c(-c3c(F)cccc3F)c2N)ccc1C(=O)NCc1ccccn1 [I-A-Q2-369] | I-A-Q2-369: log P (HCOOH): 1.52
40 | CSc1c(-c2cc(Cl)cc(C(F)(F)F)c2)c(C(F)(F)F)nn1-c1ccc(C(=O)NC(C)C(F)(F)F)cc1 (centres unmarked) [I-A-Q2-068] | I-A-Q2-068: log P (HCOOH): 5.35
41 | Cc1cc(-n2nc(C(F)(F)F)c(-c3cc(Cl)cc(Cl)c3)c2N)ccc1C(=O)NCCc1ncc(C(F)(F)F)cc1Cl [I-A-Q2-232] | I-A-Q2-232: log P (HCOOH): 4.95
42 | Nc1c(-c2cc(Cl)cc(Cl)c2)c(C(F)(F)F)nn1-c1ccc(C(=O)NC2CC2)cc1 [I-A-Q2-136] | I-A-Q2-136: log P (HCOOH): 3.80
43 | Cc1cc(-n2nc(C(F)(F)F)c(-c3cc(Cl)cc(Cl)c3)c2N)ccc1C(=O)NC1CCC1 [I-A-Q2-239] | I-A-Q2-239: log P (HCOOH): 4.17
44 | Cc1cc(-n2nc(C(F)(F)F)c(-c3cc(Cl)cc(Cl)c3)c2Br)ccc1C(=O)NCc1ccccn1 [I-A-Q2-023] | I-A-Q2-023: log P (HCOOH): 4.91

Same assay, conditions: HCOOH; Table 4, compounds of formula I-A-Q4

Row | Structure (SMILES) | log P (HCOOH)
45 | Nc1c(-c2cc(Cl)cc(Cl)c2)c(C(F)(F)F)nn1-c1ccc(S(=O)(=O)NC2CC2)c(Cl)c1 [I-A-Q4-110] | I-A-Q4-110: log P (HCOOH): 4.49
46 | Nc1c(-c2cc(F)cc(Cl)c2)c(C(F)(F)F)nn1-c1ccc(Cl)cn1 [I-A-Q4-040] | I-A-Q4-040: log P (HCOOH): 5.29
47 | Nc1c(-c2ccc(F)c(F)c2)c(C(F)(F)F)nn1-c1ccc(Cl)cn1 [I-A-Q4-050] | I-A-Q4-050: log P (HCOOH): 4.64
48 | COC(=O)c1cnc(-n2nc(C(F)(F)F)c(-c3cc(Cl)cc(Cl)c3)c2N)nc1C(F)(F)F [I-A-Q4-063] | I-A-Q4-063: log P (HCOOH): 4.66
49 | Nc1c(-c2ccc(Cl)cc2)c(C(F)(F)F)nn1-c1ccc(Cl)cn1 [I-A-Q4-041] | I-A-Q4-041: log P (HCOOH): 4.95
50 | Nc1c(-c2cccc(Br)c2)c(C(F)(F)F)nn1-c1ccc(C(=O)O)cc1 [I-A-Q4-091] | I-A-Q4-091: log P (HCOOH): 3.29
51 | Nc1c(-c2ccc(Cl)cc2)c(C(F)(F)C(F)(F)F)nn1-c1ccc(Cl)cn1 [I-A-Q4-058] | I-A-Q4-058: log P (HCOOH): 5.44
52 | CCc1nn(-c2ccc(Cl)cn2)c(N)c1-c1ccc(Cl)cc1 [I-A-Q4-026] | I-A-Q4-026: log P (HCOOH): 5.02
53 | Nc1c(-c2cc(Cl)cc(C(F)(F)F)c2)c(C(F)(F)F)nn1-c1ccc(Cl)cn1 [I-A-Q4-016] | I-A-Q4-016: log P (HCOOH): 5.76

Same assay, conditions: HPLC, reversed-phase C18, mobile phase with formic acid

Row | Structure (SMILES) | log P (HCOOH)
54 | N#Cc1cc(-n2nc(C(F)(F)Oc3ccccc3Cl)c(-c3cc(Cl)cc(C(F)(F)F)c3)c2N)ccc1-n1cncn1 [I-A-Q1-073] | I-A-Q1-073: log P (HCOOH): 4.51
55 | N#Cc1cc(-n2nc(C(F)(F)F)c(-c3cc(Cl)cc(Cl)c3)c2N)ccc1-n1cnc2ccccc21 [I-A-Q1-081] | I-A-Q1-081: log P (HCOOH): 4.28
56 | N#Cc1cc(-n2nc(C(F)(F)F)c(-c3cc(F)c(F)c(F)c3)c2N)ccc1-n1cncn1 [I-A-Q1-041] | I-A-Q1-041: log P (HCOOH): 3.19
57 | N#Cc1cc(-n2nc(C(F)(F)F)c(-c3cccc(Br)c3)c2N)ccc1-n1cncn1 [I-A-Q1-046] | I-A-Q1-046: log P (HCOOH): 3.24

Same assay, conditions: HPLC, reversed-phase C18, mobile phase with formic acid; read-out: log P (HCOOH)

Row | Structure (SMILES) | chromatographic logP
58 | Cc1cc(-n2nc(C(F)(F)F)c(-c3cc(Cl)cc(Cl)c3)c2[S+](C)[O-])ccc1C(=O)NCc1ccccn1 (centres unmarked) [I-A-Q2-063, 4-[4-(3,5-Dichlorophenyl)-5-methanesulphinyl-3-trifluoromethylpyrazol-1-yl]-2-methyl-N-pyridin-2-ylmethylbenzamide] | 3.11
59 | Cc1cc(-n2nc(C(F)(F)F)c(-c3cc(Cl)cc(Cl)c3)c2N)ccc1C(=O)O [I-A-Q4-010, 4-[5-Amino-4-(3,5-dichlorophenyl)-3-trifluoromethylpyrazol-1-yl]-2-methylbenzoic acid] | 4.04
